Experimental data from patent US20040038855A1 (priority 1999, published 2004).
Counter-ions that a name gives are not always drawn. Like-named read-outs stand apart in the source and are kept apart here.

Key:
human NPY5 receptor = target: T1, human NPY5 receptor (Homo sapiens, UniProt Q15761); experiment: Binding affinity at the human NPY5 receptor
T1 construct: expressed in transfected cells
T1 sequence (Q15761 1-445): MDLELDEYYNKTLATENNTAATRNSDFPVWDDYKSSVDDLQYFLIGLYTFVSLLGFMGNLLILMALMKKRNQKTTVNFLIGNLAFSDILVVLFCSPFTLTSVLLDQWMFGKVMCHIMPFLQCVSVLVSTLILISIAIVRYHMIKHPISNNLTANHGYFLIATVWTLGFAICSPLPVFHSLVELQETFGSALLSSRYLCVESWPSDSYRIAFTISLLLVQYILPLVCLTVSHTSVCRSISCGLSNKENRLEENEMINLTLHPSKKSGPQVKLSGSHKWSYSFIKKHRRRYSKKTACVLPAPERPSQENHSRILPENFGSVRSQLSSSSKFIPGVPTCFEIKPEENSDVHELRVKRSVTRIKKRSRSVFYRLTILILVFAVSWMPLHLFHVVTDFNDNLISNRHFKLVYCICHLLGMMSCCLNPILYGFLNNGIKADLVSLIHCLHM
Text: The design of such compounds can be optimized by determining their binding affinity at the recombinant MCH1, NPY1, NPY2, Gal1, Gal2, Gal3, and 5HT2C receptors. The methods to obtain the cDNA of the receptor, express said receptors in heterologous systems, and carry out assays to determine binding affinity are described in the following publications: human NPY1 (Larhammar et al., 1992), human NPY5 (U.S. Pat. No. 5,602,024, the disclosure of which is hereby incorporated by reference in its entirety into this application), human Gall (Habert-Ortoli et al., 1994), human Gal2 (Smith et al., 1997), human Gal3 (Smith et al., 1998), and rat 5HT2C (Julius et al., 1988). Additionally, the compounds would optimally not bind at the following receptors due to possible side effects: human H1 histamine and human H2 histamine receptors; human alpha-1A adrenergic, human alpha-1D adrenergic, human alpha-2A adrenergic, human alpha-2B adrenergic, and human alpha-2C adrenergic receptors; human dopamine D1, D2, D3, D4, and D5 receptors; the β-adrenoceptor; and the human 5HT1A, human 5HT1B, human 5HT1D, human 5HT1E, human 5HT1F, human 5HT2A, rat 5HT2C, human 5HT4, human 5HT6, and human 5HT7 receptors.

human GALR2 receptor = target: T2, human GALR2 receptor (Homo sapiens, UniProt O43603); experiment: Binding affinity at the human GALR2 receptor
T2 construct: expressed in transfected cells
T2 sequence (O43603 1-387): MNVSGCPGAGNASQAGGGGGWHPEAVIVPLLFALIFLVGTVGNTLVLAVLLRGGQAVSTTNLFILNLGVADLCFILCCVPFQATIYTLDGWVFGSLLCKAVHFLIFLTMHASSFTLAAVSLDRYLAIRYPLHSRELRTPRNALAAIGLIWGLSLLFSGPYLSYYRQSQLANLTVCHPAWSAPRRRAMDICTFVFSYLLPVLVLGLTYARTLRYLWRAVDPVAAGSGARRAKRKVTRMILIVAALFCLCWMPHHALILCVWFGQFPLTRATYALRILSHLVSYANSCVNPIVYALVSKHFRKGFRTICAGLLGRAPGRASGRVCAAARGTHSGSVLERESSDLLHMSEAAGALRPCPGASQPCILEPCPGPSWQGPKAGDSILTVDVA

human GALR1 receptor = target: T3, human GALR1 receptor (Homo sapiens, UniProt P47211); experiment: Binding affinity at the human GALR1 receptor
T3 construct: expressed in transfected cells
T3 sequence (P47211 1-349): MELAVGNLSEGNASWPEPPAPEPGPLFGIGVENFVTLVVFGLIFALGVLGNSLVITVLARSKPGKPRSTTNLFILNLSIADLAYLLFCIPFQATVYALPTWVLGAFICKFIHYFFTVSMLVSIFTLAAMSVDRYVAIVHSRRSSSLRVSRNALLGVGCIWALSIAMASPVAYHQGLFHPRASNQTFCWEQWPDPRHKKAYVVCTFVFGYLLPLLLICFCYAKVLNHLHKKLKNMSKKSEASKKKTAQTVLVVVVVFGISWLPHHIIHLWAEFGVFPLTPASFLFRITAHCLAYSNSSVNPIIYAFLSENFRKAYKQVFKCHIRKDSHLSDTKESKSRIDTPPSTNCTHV

rat 5HT2C receptor = target: T4, rat 5HT2C receptor (Rattus norvegicus, UniProt P08909); experiment: Binding affinity at the rat 5HT2C receptor
T4 construct: expressed in transfected cells
T4 sequence (P08909 33-460): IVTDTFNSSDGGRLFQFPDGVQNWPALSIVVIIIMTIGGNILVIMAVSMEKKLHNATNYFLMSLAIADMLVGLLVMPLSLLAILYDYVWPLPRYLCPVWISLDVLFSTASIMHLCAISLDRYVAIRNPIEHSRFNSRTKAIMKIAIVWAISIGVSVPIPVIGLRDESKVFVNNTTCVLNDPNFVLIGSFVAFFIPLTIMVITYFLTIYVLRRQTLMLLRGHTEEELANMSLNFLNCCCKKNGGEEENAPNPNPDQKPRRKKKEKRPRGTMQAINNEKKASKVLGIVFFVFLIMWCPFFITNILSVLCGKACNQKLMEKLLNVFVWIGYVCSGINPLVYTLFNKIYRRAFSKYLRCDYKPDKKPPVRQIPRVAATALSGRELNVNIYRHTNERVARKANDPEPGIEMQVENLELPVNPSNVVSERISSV
Method in brief: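 Affinity measured by a literature binding protocol using rat 5HT2C cDNA expressed heterologously.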

Compound	Ki (human NPY5 receptor; Table 3a, read-out: hNPY5 Ki) [µM]	Ki (human NPY5 receptor; Table 3b, read-out: hNPY5 Ki) [µM]	Ki (human GALR2 receptor; Table 3a, read-out: hGALR2 Ki) [µM]	Ki (human GALR2 receptor; Table 3b, read-out: hGALR2 Ki) [µM]	Ki (human GALR1 receptor; Table 3a, read-out: hGALR1 Ki) [µM]	Ki (human GALR1 receptor; Table 3b, read-out: hGALR1 Ki) [µM]	Ki (rat 5HT2C receptor; Table 3a, read-out: r5HT2C Ki) [µM]	Ki (rat 5HT2C receptor; Table 3b, read-out: r5HT2C Ki) [µM]	Ki (human NPY5 receptor) [µM]	Ki (human NPY5 receptor; read-out: hNPY5 Ki, Table 3b) [µM]	Ki (human GALR2 receptor) [µM]	Ki (human GALR2 receptor; read-out: hGALR2 Ki, Table 3b) [µM]	Ki (human GALR1 receptor) [µM]	Ki (human GALR1 receptor; read-out: hGALR1 Ki, Table 3b) [µM]	Ki (rat 5HT2C receptor) [µM]	Ki (rat 5HT2C receptor; read-out: r5HT2C Ki, Table 3b) [µM]
2-(3,4-DIFLUOROPHENYL)4,5-DIHYDROIMIDAZOLE-1-CARBOXYLIC ACID {3-[4-PHENYL-4-(4-BROMO-5-METHYLTHIOPNEN-2-YL)]-PROPYL}-AMIDE [Example 19]	> 50	> 50	> 50	> 50	> 50	> 50	11.7	11.7								
COC(=O)C1=C(C)NC(=O)N(C(=O)NCCCN2CCC3(CC2)OCc2ccccc23)C1c1ccc2nonc2c1 (single isomer, unassigned) [Example 18, HYDROCHLORIDE]							32.6		> 50	> 50	> 50	> 50	> 50	> 50		
CCC1=C(C(=O)O)C(c2ccc(F)c(F)c2)N(C(=O)NCCCN2CCC3(CC2)OCc2ccccc23)C(=O)N1 (single isomer, unassigned; (+)) [Example 4, (+)-1,2,3,6-TETRAHYDRO-1-1N-[4-(BENZO-4′,5′(H)FURAN)PIPERIDIN-1-YL]PROPYL}-CARBOXAMIDO-4-ETHYL-6-(3,4-DIFLUOROPHENYL)-2-OXO-PYRIMIDINE-5 CARBOXYLIC ACID HYDROCHLORIDE]	> 50	> 50	> 50	> 50	> 50	> 50	34.8									
COCC1=C(C(=O)OC)C(c2ccc(F)c(F)c2)N(C(=O)NCCCN2CCC(c3cccc(NC(C)=O)c3)CC2)C(=O)N1 (single isomer, unassigned; (-)) [Example 1, (−)-1,2,3,6-TETRAHYDRO-1-{N-[4-(3,-ACETAMIDO)-PHENYLPIPERIDIN-1-YL]PROPYL}CARBOXAMIDO-4-METHOXYMETHYL-6-(3,4-DIFLUORO-PHENYL)-2-OXOPYRIMIDINE-5-CARBOXYLIC ACID METHYL ESTER]	> 50	> 50	> 50	> 50	> 50	> 50	> 50	> 50								
CCCCN(CCCC)c1ccc(CN2CCC(CNC(=O)N3C(=O)NC(C)=C(C(=O)OC)C3c3ccc4nonc4c3)CC2)cc1 (stereo not drawn) [Example 6]	4.74	4.74	14.9	14.9	11.1	11.1	25.5	25.5								
COCC1=C(C(=O)OC)[C@H](c2ccc(F)c(F)c2)N(C(=O)NCCCN2CCC(c3cccc(NC(C)=O)c3)CC2)C(=O)N1 [Example 10, (+)-1,2,3,6-TETRAHYDRO-1-{N-[4-(3,-ACETAMIDO)-PHENYLPIPERIDIN-1-YL]PROPYL}CARBOXAMIDO-4-METHOXYMETHYL-6-(3,4-DIFLUORO-PHENYL)-2-OXOPYRIMIDINE-5-CARBOXYLIC ACID METHYL ESTER]	> 50	> 50	> 50	> 50	> 50	> 50	29.6									
CCCCN(CCCC)c1ccc(CNC[C@H]2CC[C@H](NC(=O)c3cccc4ccccc34)CC2)cc1 [Example 13, N1-[4-([4-(DIBUTYLAMINO)BENZYL]AMINOMETHYL)CYCLOHEXYL]-1-NAPHTH-AMIDE]	> 50	> 50	4.73	4.73	11.3	11.3	25	25								
COC(=O)C1=C(C)NC(=O)N(C(=O)NCCCN2CCC3(CC2)OCc2ccccc23)C1c1ccc(F)c(F)c1 (stereo not drawn) [Example 20, 4-(3,4-DIFLUORPHENYL)-6-METHYL-2-OXO-3-{[3-(4-SPIRO[ISOBENZOFURAN-1(3H),4′-PIPERIDINE]PROPYL}-1,2,3,4-TETRAHYDROPYRIMIDINE-5-CARBOXYLIC ACID METHYL ESTER]							15.1	15.1	> 50	> 50	> 50	> 50	> 50	> 50		
O=C(CCCN1CCC(O)(c2ccc(Cl)cc2)CC1)c1ccc(Cl)cc1 [Example 29]									46.1	46.1	> 50	> 50	> 50	> 50	> 50	> 50
